The text below walks through data of ChEMBL document CHEMBL1128856, “Paclitaxel and docetaxel photoaffinity labels” (1995).

What all share (assay type): functional
Experiment [1] in a line: Ability to induce the formation of microtubules using microtubule assembly assay in vitro relative to paclitaxel ED50 = 1.
Experiment [2] is described as follows: In vitro cytotoxicity against B16 melanoma cells relative to paclitaxel ED50 = 1.
Experiment [3] can be described thus: In vitro cytotoxicity against P388 cells relative to paclitaxel ED50 = 1.

With `CC(=O)O[C@H]1C(=O)[C@@]2(C)[C@H]([C@H](OC(=O)c3ccccc3)[C@]3(O)C[C@H](OC(=O)[C@H](O)[C@@H](NC(=O)c4cccc(N=[N+]=[N-])c4)c4ccccc4)C(C)=C1C3(C)C)[C@]1(OC(C)=O)CO[C@@H]1C[C@@H]2O`, the Ratio is 0.81 in experiment [1] and 2.6 in experiment [2].
The like results for `CC(=O)O[C@H]1C(=O)[C@@]2(C)[C@H]([C@H](OC(=O)c3ccccc3)[C@]3(O)C[C@H](OC(=O)[C@H](O)[C@@H](NC(=O)c4ccc(N=[N+]=[N-])cc4)c4ccccc4)C(C)=C1C3(C)C)[C@]1(OC(C)=O)CO[C@@H]1C[C@@H]2O` were, in that order, 2 and 4.6.
On to `CC(=O)O[C@H]1C(=O)[C@@]2(C)[C@H]([C@H](OC(=O)c3ccccc3)[C@]3(O)C[C@H](OC(=O)[C@H](O)[C@@H](NC(=O)c4ccccc4)c4ccccc4)C(C)=C1C3(C)C)[C@]1(OC(C)=O)CO[C@@H]1C[C@@H]2O` [PACLITAXEL], for which the Ratio in experiment [1] and in experiment [2] was 1 each time.
Take `CC(=O)O[C@H]1C(=O)[C@@]2(C)[C@H]([C@H](OC(=O)c3cccc(N=[N+]=[N-])c3)[C@]3(O)C[C@H](OC(=O)[C@H](O)[C@@H](NC(=O)OC(C)(C)C)c4ccccc4)C(C)=C1C3(C)C)[C@]1(OC(C)=O)CO[C@@H]1C[C@@H]2O`: the Ratio in experiment [1] turned out to be 1.2; in experiment [2], 0.37.
As to `CC(=O)O[C@H]1C(=O)[C@@]2(C)[C@H]([C@H](OC(=O)c3ccccc3)[C@]3(O)C[C@H](OC(=O)[C@H](O)[C@@H](NC(=O)c4cc(N=[N+]=[N-])cc([N+](=O)[O-])c4)c4ccccc4)C(C)=C1C3(C)C)[C@]1(OC(C)=O)CO[C@@H]1C[C@@H]2O`, the Ratio in experiment [1] came out at 3; in experiment [2] it was 17.4.
Take `CC(=O)O[C@@]12CO[C@@H]1C[C@H](O)[C@@]1(C)C(=O)[C@H](O)C3=C(C)[C@@H](OC(=O)[C@H](O)[C@@H](NC(=O)OC(C)(C)C)c4ccccc4)C[C@@](O)([C@@H](OC(=O)c4ccccc4)[C@H]21)C3(C)C.O.O.O` [DOCETAXEL]: the Ratio stood at 0.45 in experiment [1] and 0.41 in experiment [2].
For the compound `CC(=O)O[C@H]1C(=O)[C@@]2(C)[C@H]([C@H](OC(=O)c3cccc(N=[N+]=[N-])c3)[C@]3(O)C[C@H](OC(=O)[C@H](O)[C@@H](NC(=O)c4ccccc4)c4ccccc4)C(C)=C1C3(C)C)[C@]1(OC(C)=O)CO[C@@H]1C[C@@H]2O`, the Ratio was 0.4 in experiment [1], 0.08 in experiment [3] and 0.65 in experiment [2].
